Test results taken from ChEMBL document CHEMBL4261492, “Synthesis and in vitro study of novel borneol derivatives as potent inhibitors of the influenza A virus” (Medchemcomm, 2017).

Tests used:
Influenza A virus [1] = assay: microbe, parasite or virus in culture; conditions: A/Puerto Rico/8/1934(H1N1), MDCK
[2] = (§1) Cytotoxicity against MDCK cells after 48 hrs by MTT assay; format: cell-based, Canis lupus familiaris; conditions: dog, MDCK cells
in vitro = conditions: dog, MDCK cells, Ratio CC50/EC50
MDCK = assay: as §1; format: cell-based, Canis lupus familiaris; conditions: dog, mdck, 48 h
Influenza A virus [3] = conditions: mdck

SMILES | IC50 (Influenza A virus [1]) [µM] | CC50 at 48 h [2] [µM] | selectivity ratio (in vitro) | CC50 (MDCK) [µM] | IC50 (Influenza A virus [3]) [µM]
CCN1CCN(CC(=O)O[C@@H]2C[C@@H]3CC[C@@]2(C)C3(C)C)CC1 | 4.4 | 100 | 23 | – | –
CC1(C)[C@H]2CC[C@]1(C)[C@H](OC(=O)CCN1CCCCC1)C2 | 7.8 | – | – | 69.6 | –
CCOC(=O)N1CCN(CCC(=O)O[C@@H]2C[C@@H]3CC[C@@]2(C)C3(C)C)CC1 | > 98.4 | – | 2 | 150 | –
NC(=O)c1ncn([C@@H]2O[C@H](CO)[C@@H](O)[C@H]2O)n1 [RIBAVIRIN] | 24.6 | – | > 81 | > 2000 | –
NC12CC3CC(CC(C3)C1)C2 [AMANTADINE] | 64.2 | – | 4 | – | –
COC(=O)CN1CCOCC1 | > 1890 | – | – | > 1890 | –
CC1CCN(CC(=O)O[C@@H]2C[C@@H]3CC[C@@]2(C)C3(C)C)CC1 | 10.2 | – | 9 | 93.9 | –
CCOC(=O)CN1CCOCC1 | 983 | – | – | > 1730 | –
CC1(C)[C@H]2CC[C@]1(C)[C@@H](O)C2 (stereo in doubt; 1) | – | – | – | > 2140 | –
CCCCN(CCCC)CCC(=O)O[C@@H]1C[C@@H]2CC[C@@]1(C)C2(C)C | 7.1 | – | 6 | 41.8 | –
CC1(C)[C@H]2CC[C@]1(C)[C@@H](OC(=O)CN1CCOCC1)C2 | 73.7 | – | – | > 534 | –
CC1(C)[C@H]2CC[C@]1(C)[C@H](OC(=O)CN1CCOCC1)C2 | 7.1 | – | 82 | 580 | –
CCOC(=O)N1CCN(CC(=O)O[C@@H]2C[C@@H]3CC[C@@]2(C)C3(C)C)CC1 | 683 | – | 1 | > 852 | –
CN1CCN(CCC(=O)O[C@@H]2C[C@@H]3CC[C@@]2(C)C3(C)C)CC1 | 1.9 | – | 25 | 48.1 | –
CN1CCN(CC(=O)O[C@@H]2C[C@@H]3CC[C@@]2(C)C3(C)C)CC1 | 7.1 | 103 | 14 | – | –
CC1(C)[C@H]2CC[C@]1(C)[C@H](OC(=O)CN1CCNCC1)C2 | 3.2 | 51.6 | 16 | – | –
CC1(C)[C@H]2CC[C@]1(C)[C@H](OC(=O)CN1CCCC1)C2 | 34 | – | 9 | 302 | –
CC1(C)[C@H]2CC[C@]1(C)[C@H](OC(=O)CCN1CCCC1)C2 | 14.3 | – | 9 | 125 | –
CCCCN(CCCC)CC(=O)O[C@@H]1C[C@@H]2CC[C@@]1(C)C2(C)C | > 34.1 | – | – | 69.3 | –
CC1(C)[C@H]2CC[C@]1(C)[C@@H](O)C2 (stereo in doubt; 22) | – | – | – | > 974 | > 974
CC1(C)[C@H]2CC[C@]1(C)[C@H](OC(=O)CCN1CCOCC1)C2 | 12.2 | – | 45 | 552 | –
CC1CCN(CCC(=O)O[C@@H]2C[C@@H]3CC[C@@]2(C)C3(C)C)CC1 | 15.3 | – | 4 | 56.4 | –
CC1(C)[C@H]2CC[C@]1(C)[C@H](OC(=O)CCN1CCNCC1)C2 | 6.8 | – | 2 | 12.6 | –
CC1(C)[C@H]2CC[C@]1(C)[C@@H](OC(=O)CCN1CCOCC1)C2 | 7.8 | – | 65 | 508 | –
CCOC(=O)C1=C[C@@H](OC(CC)CC)[C@H](NC(C)=O)[C@@H](N)C1 [OSELTAMIVIR] | – | – | – | 160 | –
CC(N)C12CC3CC(CC(C3)C1)C2 (configuration not stated) [RIMANTADINE] | 67 | – | 5 | – | –
CCN1CCN(CCC(=O)O[C@@H]2C[C@@H]3CC[C@@]2(C)C3(C)C)CC1 | 8.4 | – | 12 | 105 | –
CC1(C)[C@H]2CC[C@]1(C)[C@H](OC(=O)CN1CCCCC1)C2 | 15.1 | – | 9 | 138 | –
